# Data published in patent US20220257552A1, “METHODS OF PRESCREENING AND TREATING BREAST CANCERS WITH SELECTIVE ANDROGEN RECEPTOR MODULATORS” (priority 2021, published 2022).
# What was measured:
# MDA-MB-231-AR tumors = test: Affymetrix microarray of MDA-MB-231-AR tumors; type: in vivo, mice
# Procedure: RNA was extracted from MDA-MB-231-AR tumors (n=5/group) treated with vehicle or compound of Formula VIII. RNA was pooled and Affymetrix microarray was performed to determine the change in expression of gene signature.
# Microarray Analysis was performed on RNA from MDA-MB-231-AR and MCF-7-AR tumors in order to identify and compare changes in gene expression in ER-negative (MDA-MB-231-AR; triple negative) an ER-positive (MCF-7-AR; triple positive) breast cancer tumors treated with a compound of Formula VIII (30 mg/kg/day p.o. for 4 weeks). Affymetrix analysis of the xenografts was done on pooled samples of the xenografts. The analysis included ˜70,000 sequences with ˜30,000 genes and variations thereof represented, as well as microRNA's. RNA was isolated and expression of genes was evaluated using microarray (Affymetrix Human Gene ST 2.0 array). Expression of genes in compound of Formula VIII-treated samples was compared with the expression in vehicle-treated samples.
# BR-0001 TNBC = test: BR-0001 AR-positive TNBC xenograft in NSG mice; type: in vivo
# Procedure: Xenograft experiment. NSG mice obtained from JAX labs were housed with five animals per cage and were allowed free access to tap water and commercial rat chow (Harlan Teklad 22/5 rodent diet—8640). During the course of the study, the animals were maintained on a 12 hr light:dark cycle. Animals were anesthetized and BR-0001 TNBC fragments of 1 mm^3 (approximately) were implanted subcutaneously in NSG mice. […] Tumor volume was measured thrice weekly. Tumor volume was calculated using the formula length×width×width×0.5236. Once tumors reached greater than 1500-2000 mm^3, animals were sacrificed and tumors weighted and stored for various analysis. Two regions of the same BR-0001 tumor, an AR-positive TNBC xenograft, were immunohistochemically stained with AR antibody (AR N20 from SCBT) (FIGS. 26A and 26B) and compared to an AR-negative (FIG. 26C) TNBC as a negative control. […] The tumor xenograft efficacy experimental results are provided in 27A-27C, with FIGS. 27A and 27B being replicate experiments.
# Tumors from replicate experiment 2 (FIG. 27B) were fixed in formalin and paraffin embedded. Slides were cut and stained with Ki-67 antibody. Ki-67 positive cells (total 200 cells were counted in each slide) in each slide were counted and represented as % stained cells, as shown in FIG. 28B.
# HCI-9 PDX = test: HCI-9 patient-derived xenograft in NSG mice; type: in vivo; settings: Formula IX 10 mpk, enzalutamide 30 mpk p.o.
# Procedure: All animal protocols were approved by The University of Tennessee Health Science Center (UTHSC) Institutional Animal Care and Use Research Committee. Xenograft experiments were performed as previously published (Narayanan et al. (2014) PLoS One 9, e103202). Briefly, 3 million MCF-7 cells were suspended in 0.05 ml MEM+10% FBS and 0.05 ml Matrigel/nude mouse and were injected subcutaneously. Once the tumor size reached 100-200 mm^3, the animals were randomized and treated orally with the indicated drugs formulated in DMSO:PEG-300 (15:85). HCI-7, HCI-9, and HCI-13 PDXs were gifts kindly donated by Dr. Alana Welm (Huntsman Cancer Institute, Salt Lake City, Utah). HCI PDX tumor fragments (1 mm^3) were surgically implanted under the mammary fat pad in female NOD SCID Gamma (NSG) mice. Tumor volume was measured twice weekly for MCF-7 xenograft and once or twice weekly for HCI PDXs. At the end of the study, animals were sacrificed and tumors were excised, weighed, and stored for various analyses.
# To determine if the same effect is observed in an AR-positive, but ER-negative breast cancer, HCI-9 tumor fragments were implanted under the mammary fat pad of NSG mice.
# HCI-13 tumor fragments = test: HCI-13 ex vivo sponge culture, real time PCR; type: cell-based; settings: 3 days
# Procedure: HCI-13 tumors grown in female mice were allowed to reach 500-1000 mm^3 before the animals were sacrificed and the tumors were excised to be used for sponge culture. Patient specimens frozen in liquid nitrogen in freezing medium were used for sponge culture. […] Tumors were sliced into small pieces (˜1 mm^3) and incubated on pre-soaked gelatin sponges (5 fragments/sponge) in 12 well plates containing 1.5 mL medium (MEM+10% FBS+2 mM L-glutamine+10 μg/mL insulin+10 μg/mL hydrocortisone+penicillin:streptomycin). The cultures were performed in triplicates for HCI-13 and singly for patient specimens. Pooled samples (n=5/sponge) from each sponge constituted one sample. Tissues were harvested after 3 days of treatment, RNA extracted, and expression of various genes measured. Although the same procedure was adopted for specimens obtained from breast cancer patients, the specimens were cultured singly (n=5/sponge=one sample) and not in triplicates as performed for HCI-13.
smiles,measurement,setting,value
"C[C@](O)(COc1ccc(C#N)cc1)C(=O)Nc1ccc(C#N)c(Cl)c1 [Formula VIII, (S)—N-(3-chloro-4-cyanophenyl)-3-(4-cyanophenoxy)-2-hydroxy-2-methylpropanamide]",Aurora kinase expression,MDA-MB-231-AR tumors; Table 8,Decreased
same,BUB1 S/T kinase expression,MDA-MB-231-AR tumors; Table 8,Decreased
same,CENPE expression,MDA-MB-231-AR tumors; Table 8,Decreased
same,EHMT2 expression,MDA-MB-231-AR tumors; Table 8,Decreased
same,ERCC1 expression,MDA-MB-231-AR tumors; Table 8,Decreased
same,IGFBP3 expression,MDA-MB-231-AR tumors; Table 8,Decreased
same,ITGA2 expression,MDA-MB-231-AR tumors; Table 8,Decreased
same,NQO1 expression,MDA-MB-231-AR tumors; Table 8,Increased
same,PARP1 expression,MDA-MB-231-AR tumors; Table 8,Decreased
same,POLD1 expression,MDA-MB-231-AR tumors; Table 8,Decreased
same,PTPRJ expression,MDA-MB-231-AR tumors; Table 8,Increased
same,β-Adrenoceptor2 expression,MDA-MB-231-AR tumors; Table 8,Decreased
same,FKBP51 induction,MDA-MB-231-AR tumors; Table 10,∞
same,IRS2 induction,MDA-MB-231-AR tumors; Table 10,4.40 Fold
same,MUC1 induction,MDA-MB-231-AR tumors; Table 10,9 Fold
same,PTGS2 induction,MDA-MB-231-AR tumors; Table 10,14 Fold
same,SNAI2/SLUG induction,MDA-MB-231-AR tumors; Table 10,2.10 Fold
same,genes Up,MDA-MB-231-AR tumors; more than 2 fold vs vehicle,720
"C[C@](O)(COc1ccc(C#N)cc1)C(=O)Nc1ccc(C#N)c(C(F)(F)F)c1 [Formula IX, (S)—N-(4-Cyano-3-(trifluoromethyl)phenyl)-3-(4-cyanophenoxy)-2-hydroxy-2-methylpropanamide]",tumor growth,BR-0001 TNBC; 10 mg/kg/day Formula IX or enzalutamide orally,some tumor growth inhibition
same,tumor weight reduction,BR-0001 TNBC; experiment 2,~40%
same,tumor growth trajectory,HCI-9 PDX,Neither Formula IX nor enzalutamide altered the growth trajectory
same,inhibition of ER-induced pS2 and PR gene expression,"HCI-13 tumor fragments; 10 nM DHT, 1 μM Formula IX, 100 nM fulvestrant",effective
same,AR-target gene FKBP5 expression,HCI-13 tumor fragments,induced
same,MKI67 expression,HCI-13 tumor fragments,inhibited
